Assay: microbiological proof of ciprofloxacin bioactivity after manufacturing and during in vitro drug release tests
Conditions: microbiologically proved

## O=C(O)c1cn(C2CC2)c2cc(N3CCNCC3)c(F)cc2c1=O [Ciprofloxacin, ciprofloxacin]
Example 1, P(L/DL)LA composite
  bioactivity of ciprofloxacin after manufacturing and during the in vitro drug release tests: bioactive
Example 2, PLGA composite
  bioactivity of ciprofloxacin after manufacturing and during the in vitro drug release tests: bioactive
